Test results reported in PMC8669712, “G Protein-Coupled Receptor GPR35 Suppresses Lipid Accumulation in Hepatocytes” (ACS Pharmacology & Translational Science, 2021).

Experiments:
[1] = system: mouse orthologue of GPR35; parameters: method as in PMID 22967846, PMID 30601679; conditions: cited from earlier work
HepG2 cells [2] = test: Oil Red O staining of LXR (T0901317)-induced lipid accumulation in HepG2 cells; assay type: cell-based, human; conditions: T0901317/lodoxamide, concentration-dependent
Protocol: Human hepatocellular carcinoma HepG2 cells were grown in Minimum Essential Medium (MEM) supplemented with 10% fetal bovine serum (FBS), 2 mM L-glutamine, 1× non-essential amino acid, 1 mM sodium pyruvate, and 1× penicillin/streptomycin. Materials for cell culture were all from Sigma-Aldrich (St. Louis, MO) or Thermo Fisher Scientific (Waltham, MA). Cells were incubated in a humidified CO2 incubator at 37 °C. […] Cells were seeded onto a 12-well plate (1 × 10^5 cells/well) for 24 h prior to drug treatment. […] Lipid accumulation was measured by Oil Red O staining.

HepG2 cells [3] = test: Label-free cellular impedance assay (xCELLigence) in HepG2 cells; assay type: cell-based, human; conditions: HepG2 cells; for impedance response of antagonist added alone: 1 × 10^–5 M; for impedance response to lodoxamide on co-addition of antagonist: antagonist 1 × 10^–5 M, lodoxamide 1 × 10^–8 M
Protocol: (§1) HepG2 cells were seeded onto xCELLigence E plates (2 × 10^4 cells/well) and incubated for 24 h at 37 °C. To evaluate GPR35 activation and its downstream G protein signaling, HepG2 cells or primary mouse hepatocytes were exposed to GPR35 antagonists or G protein inhibitors 1 h (overnight for Pertussis toxin) prior to GPR35 agonist stimulation. After the addition of GPR35 agonist or vehicle control, the impedance (represented as “cell index”) was recorded every 30 s over a 2 h period using xCELLigence RTCA (Agilent). Each experiment was repeated at least three times.

human isoforms of GPR35 = target: human isoforms of GPR35; parameters: method as in PMID 23888932; conditions: read-out: Ki from competition studies against a [3H]radiolabeled agonist; cited from earlier work
[4] = system: primary mouse hepatocytes; parameters: method as in Nam et al. 37; conditions: against 1 × 10^–6 M lodoxamide; ref Nam et al. 37; read-out: IC50 to block mouse GPR35 in primary hepatocytes; cited from earlier work
[5] = system: hepatocytes from hGPR35a-HA-expressing mice; test: Label-free cellular impedance assay in hepatocytes from hGPR35a-HA-expressing mice; assay type: cell-based, mouse
[6] = system: clone 27 HepG2 cells transfected with human GPR35a; test: Cellular impedance in clone 27 cells transiently transfected with human GPR35a; assay type: cell-based; conditions: ML-145 1 × 10^–5 M, lodoxamide 1 × 10^–8 M
Protocol: Briefly, CRISPR KO cells were transiently transfected 24 h with the human GPR35a expression vector using LipofectAMINE 3000 reagent, according to the manufacturer’s instructions. […] Alternatively, after 24 h transfection, cells were seeded onto a 12-well plate (1 × 10^5 cells/well) for 24 h at 37 °C. Then, cells were incubated with T0901317 and/or GPR35 agonists (in MEM containing 5% FBS) for 72 h. After the drug treatment, cells were stained with Oil Red O to examine the levels of lipid accumulation. Each experiment was repeated at least three times.
as §1

[7] = system: hepatocytes from hGPR35a-HA-expressing mice; test: Oil Red O lipid accumulation in hepatocytes from hGPR35a-HA-expressing mice; assay type: cell-based, mouse; conditions: hepatocytes from hGPR35a-HA-expressing mice
Protocol: All mice were bred as WT or homozygous onto a C57BL/6N background. Animals were cared for in accordance with national guidelines on animal experimentation. All animal experiments were conducted under a home office license held by the authors. WT, humanized GPR35a, or KO male mice at 3–4 months of age were used in this study. These mice were fed ad libitum with a standard mouse chow diet. Briefly, mouse primary hepatocytes were isolated using a two-step collagenase perfusion technique.[45] Twelve-well plates or xCELLigence E plates were coated with rat tail collagen I solution (Thermo Fisher Scientific) overnight at 37 °C and washed with PBS. Isolated primary hepatocytes were seeded onto 12-well plates (8 × 10^4 cells/well) or xCELLigence E plates (2 × 10^4 cells/well) in Wiliam’s E medium (Thermo Fisher Scientific) supplemented with 10% fetal bovine serum (FBS) and 1× penicillin/streptomycin. Cells were maintained for 7 days with a fresh medium change every other day. […] Human GPR35 activation was examined using xCELLigence RTCA assay. To access the impact of GPR35 agonists on the lipid accumulation, WT and humanized GPR35 hepatocytes were incubated with T0901317 and/or GPR35 agonists/antagonists, as indicated (in DMEM medium containing 5% FBS and 1.5% BSA) for 48 h. Alternatively, GPR35 KO hepatocytes were incubated with drugs, as indicated for 5 days. In the T0901317 pretreatment model, human GPR35 hepatocytes were stimulated with T0901317 for 2 days and then further treated with lodoxamide for a further 3 days. After each drug treatment, hepatocytes were stained with Oil Red O and quantified as described. Each experiment was repeated at least three times.
Lipid accumulation was measured by Oil Red O staining. A working solution of Oil Red O was prepared, as described with modification.[46] After drug treatment, cells were washed with PBS and fixed with formalin solution for 1 h at 4 °C. Then, cells were stained with Oil Red O working solution for 10 min at room temperature. After PBS washing, Oil Red O was extracted from cells using 150 μl of isopropanol and OD510 nm measured. After the lipid extraction, cells were further soaked in PBS overnight at 4 °C. These cells were then stained with Hoechst 33342 (1 μg/mL) and the fluorescence intensity of Hoechst (represents the DNA content in cells) was measured using a CLARIOstar plate reader (BMG LABTECH). Oil Red O accumulation was corrected for differences in DNA content and expressed as relative absorbency, taking the control condition (treated with vehicle only) as 1.

| Structure (SMILES) | affinity at the mouse orthologue of GPR35 [1] | antagonist co-addition: effect of lodoxamide on LXR-induced lipid accumulation (HepG2 cells [2]) | impedance response of antagonist added alone (HepG2 cells [3]) | impedance response to lodoxamide on co-addition of antagonist (HepG2 cells [3]) | Ki (human isoforms of GPR35) [nM] | IC50 [4] [nM] | effect of co-addition of antagonist on the lodoxamide impedance response ([5]; ML-145 1 × 10^–5 M, lodoxamide 1 × 10^–7 M) | impedance effect of antagonist alone versus DMSO-containing vehicle ([5]; hepatocytes from hGPR35a-HA-expressing mice) | effect of co-addition of antagonist on the lodoxamide impedance signal in clone 27 cells transfected with human GPR35a [6] | effect of antagonist added alone on lipid content [7] | effect of antagonist on lodoxamide suppression of lipid accumulation ([7]; T0901317/lodoxamide 5 × 10^–6 M) |
| --- | --- | --- | --- | --- | --- | --- | --- | --- | --- | --- | --- |
| COC(=O)c1cnn(-c2ccc(F)cc2F)c1C=NNC(=S)NC(C)(C)C [CID-2745687, 1-(2,4-difluorophenyl)-5-[[2-[[(1,1-dimethylehyl)amino]thioxomethyl]hydrazinylidene]methyl]-1H-pyrazole-4-carboxylic acid methyl ester] | neither of these ligands has measurable affinity | prevented the effect of lodoxamide on lipid accumulation | neither antagonist generated a response distinct from the vehicle | absent | 42 | 98 |  |  |  |  |  |
| CC(/C=C1\SC(=S)N(CCCC(=O)Nc2ccc(C(=O)O)c(O)c2)C1=O)=C\c1ccccc1 [ML-145, 2-hydroxy-4-[4-(5Z)-5-[(E)-2-methyl-3-phenylprop-2-enylidene]-4-oxo-2-sulfanylidene-1,3-thiazolidin-3-yl]butanoylaminobenzoic acid] | neither of these ligands has measurable affinity | prevented the effect of lodoxamide on lipid accumulation | neither antagonist generated a response distinct from the vehicle | absent | 8.7 |  | prevented | no separate effect | blocked | without effect when added alone | blocked the effect of lodoxamide in a concentration-dependent manner |
